Measurements from US8288424B2, “Substituted tetrahydroimidazopyridine compounds and the use thereof in the treatment of pain and other conditions” (Gruenenthal GmbH, priority 2008, dated 2012).

Target: T1, KCNQ2/3 channels (Homo sapiens, UniProt O43525+O43526)
T1 construct: expressed in transfected cells; host or cells: CHO-K1
Test: Fluorescence assay using a voltage-sensitive dye
Assay type: cell-based
Settings: 10 μmol test substance; CHO-K1 cells expressing KCNQ2/3 channels; agonistic activity; read-out: % Stimulation [10 μmol] Average
Description: Fluorescence Assay Using a Voltage-Sensitive Dye
Human CHO-K1 cells expressing KCNQ2/3 channels are cultivated adherently at 37° C., 5% CO2 and 95% humidity in cell culture bottles (e.g. 80 cm^2 TC flasks, Nunc) with MEM Alpha Medium (1×, liquid, Invitrogen, #22571), 10% foetal calf serum (FCS) (Invitrogen, #10270-106, heat-inactivated) and the necessary selection antibiotics. Before being spread out for the measurements, the cells are washed with a 1×DPBS buffer without Ca^2+/Mg^2+ (e.g. Invitrogen, #14190-094) and detached from the bottom of the culture vessel by means of Accutase (PAA Laboratories, #L11-007) (incubation with Accutase for 15 min at 37° C.). The cell count then present is determined using a CASY™ cell counter (TCC model, Schärfe System) in order subsequently to apply 20,000 cells/well/100 μl of the described nutrient medium to 96-well measuring plates of the Corning™ CellBIND™ type (flat clear-bottom black polystyrene microplates, #3340). Incubation is then carried out for one hour at room temperature, without gassing or adjusting the humidity, followed by incubation for 24 hours at 37° C., 5% CO2 and 95% humidity.
The voltage-sensitive fluorescent dye from the Membrane Potential Assay Kit (Red bulk format part R8123 for FLIPR, Molecular Devices™) is prepared by dissolving the contents of a vessel of Membrane Potential Assay Kit Red Component A in 200 ml of extracellular buffer (ES buffer, 120 mM NaCl, 1 mM KCl, 10 mM HEPES, 2 mM CaCl2, 2 mM MgCl2, 10 mM glucose; pH 7.4). After removal of the nutrient medium, the cells are washed with 200 μl of ES buffer, then covered with a layer of 100 μl of the dye solution prepared above and incubated for 45 min at room temperature with exclusion of light.
The fluorescence measurements are carried out with a BMG Labtech FLUOstar™ or BMG Labtech POLARstar™ instrument (525 nm excitation, 560 nm emission, bottom-read mode). After incubation of the dye, 50 μl of the substances to be tested in the desired concentrations, or 50 μl of ES buffer for control purposes, are introduced into separate cavities of the measuring plate and incubated for 30 min at room temperature whilst being shielded from light. The fluorescence intensity of the dye is then measured for 5 min and the fluorescence value F1 of each well is thus determined at a given, constant time. 15 μl of a […] KCl solution ([…]) are then added to each well. The change in fluorescence is subsequently measured until all relevant measured values have been obtained (mainly 5-30 min). At a given time after KCl application, a fluorescence value F2 is determined, in this case at the time of the fluorescence peak.
For calculation, the fluorescence intensity F2 is compared with the fluorescence intensity F1, and the agonistic activity of the target compound on the potassium channel is determined therefrom. F2 and F1 are calculated as follows:
[formula] In order to determine whether a substance has an agonistic activity,
[formula] for example, can be compared with
[formula] of control cells.
[formula] is determined by adding to the reaction batch only the buffer solution instead of the substance to be tested, determining the value F1K of the fluorescence intensity, adding the potassium ions as described above and measuring a value F2K of the fluorescence intensity. Then F2K and F1K are calculated as follows:
[formula] A substance has an agonistic activity on the potassium channel when
[formula] is greater than
[formula] Independently of the comparison of
[formula] it is also possible to conclude that a target compound has an agonistic activity if an increase in
[formula] is to be observed as the dosage of the target compound increases. Calculations of EC50 and IC50 values are carried out with the aid of Prism 4 software (GraphPad Software™).

| SMILES | activation at 10 µM |
| --- | --- |
| O=C(c1cn2c(n1)CCC(c1cccc(F)c1)C2)N1CCC(Cc2ccccc2)CC1 (stereo not shown) [Compound 61, (4-Benzylpiperidin-1-yl)(6-(3-fluorophenyl)-5,6,7,8-tetrahydroimidazo[1,2-a]pyridin-2-yl)methanone] | 82.2% |
| Cc1cc(C2CCc3nc(C(=O)N4CCN(c5ccc(C(F)(F)F)cc5)CC4)cn3C2)ccc1F (stereo not shown) [Compound 62, (6-(4-Fluoro-3-methylphenyl)-5,6,7,8-tetrahydroimidazo[1,2-a]pyridin-2-yl)(4-(4-(trifluoromethyl)phenyl)piperazin-1-yl)methanone] | 40.8% |
| Cc1cc(C2CCc3nc(C(=O)N4CCN(c5ccc(F)cc5)CC4)cn3C2)ccc1F (stereo not shown) [Compound 63, (6-(4-Fluoro-3-methylphenyl)-5,6,7,8-tetrahydroimidazo[1,2-a]pyridin-2-yl)(4-(4-fluorophenyl)piperazin-1-yl)methanone] | 96.7% |
| Cc1ccc(N2CCN(C(=O)c3cn4c(n3)CCC(c3ccc(F)c(C)c3)C4)CC2)cc1 (stereo not shown) [Compound 64, (6-(4-Fluoro-3-methylphenyl)-5,6,7,8-tetrahydroimidazo[1,2-a]pyridin-2-yl)(4-(4-methylphenyl)piperazin-1-yl)methanone] | 46.7% |
| Cc1cccc(N2CCN(C(=O)c3cn4c(n3)CCC(c3ccc(F)c(C)c3)C4)CC2)c1 (stereo not shown) [Compound 65, (6-(4-Fluoro-3-methylphenyl)-5,6,7,8-tetrahydroimidazo[1,2-a]pyridin-2-yl)(4-(3-methylphenyl)piperazin-1-yl)methanone] | 132% |
| Cc1cc(C2CCc3nc(C(=O)N4CCC(C(c5ccccc5)c5ccccc5)CC4)cn3C2)ccc1F (stereo not shown) [Compound 67, (4-Benzhydrylpiperidin-1-yl)(6-(4-fluoro-3-methylphenyl)-5,6,7,8-tetrahydroimidazo[1,2-a]pyridin-2-yl)methanone] | 33.3% |

Same assay, conditions: CHO-K1 cells expressing KCNQ2/3 channels; agonistic activity

| SMILES | EC50 |
| --- | --- |
| O=C(c1cn2c(n1)CCC(c1ccccc1)C2)N1CCN(c2cccc(C(F)(F)F)c2)CC1 (stereo not shown) [Compound 53, (6-Phenyl-5,6,7,8-tetrahydroimidazo[1,2-a]pyridin-2-yl)(4-(3-(trifluoromethyl)phenyl)piperazin-1-yl)methanone] | 8.34 µM |
| COc1c(C)cc(C2CCc3nc(C(=O)N4CCN(c5cccc(C(F)(F)F)c5)CC4)cn3C2)cc1C (stereo not shown) [Compound 54, (6-(4-Methoxy-3,5-dimethylphenyl)-5,6,7,8-tetrahydroimidazo[1,2-a]pyridin-2-yl)(4-(3-(trifluoromethyl)phenyl)piperazin-1-yl)methanone] | 2.45 µM |
| COc1c(C)cc(C2CCc3nc(C(=O)N4CCC(Cc5ccccc5)CC4)cn3C2)cc1C (stereo not shown) [Compound 55, (4-Benzylpiperidin-1-yl)(6-(4-methoxy-3,5-dimethylphenyl)-5,6,7,8-tetrahydroimidazo-[1,2-a]pyridin-2-yl)methanone] | 5.42 µM |
| COc1c(C)cc(C2CCc3nc(C(=O)N4CC5(C)CC4CC(C)(C)C5)cn3C2)cc1C (stereo not shown) [Compound 56, (6-(4-Methoxy-3,5-dimethylphenyl)-5,6,7,8-tetrahydroimidazo[1,2-a]pyridin-2-yl)(1,3,3-trimethyl-6-azabicyclo[3.2.1]octan-6-yl)methanone] | 11.3 µM |
| Cc1cc(C2CCc3nc(C(=O)N4CCC(Cc5ccccc5)CC4)cn3C2)ccc1F (stereo not shown) [Compound 57, (4-Benzylpiperidin-1-yl)(6-(4-fluoro-3-methylphenyl)-5,6,7,8-tetrahydroimidazo[1,2-a]pyridin-2-yl)methanone] | 9.71 µM |
| Cc1cc(C2CCc3nc(C(=O)N4CCN(c5cccc(C(F)(F)F)c5)CC4)cn3C2)ccc1F (stereo not shown) [Compound 58, (6-(4-Fluoro-3-methylphenyl)-5,6,7,8-tetrahydroimidazo[1,2-a]pyridin-2-yl)(4-(3-(trifluoromethyl)phenyl)piperazin-1-yl)methanone] | 4.46 µM |
| COc1cccc(C2CCc3nc(C(=O)NC(C)CCc4ccccc4)cn3C2)c1 (stereo not shown) [Compound 60, 6-(3-Methoxyphenyl)-N-(4-phenylbutan-2-yl)-5,6,7,8-tetrahydroimidazo[1,2-a]pyridine-2-carboxamide] | 6.4 µM |
